Results from US4103082A, “Aminocyclitol derivatives and process for producing the same” (priority 1975, dated 1978).
Values after ≈ are worked out from the molar mass of the structure shown.

Columns and labels:
[1] = test system: Staphylococcus aureus No. 26; assay: antibacterial activity (Minimum Inhibitory Concentration); type: cell-based; conditions: Staphylococcus aureus, NO.26
Proteus species C73-23 = assay: as above; type: cell-based; conditions: Proteus species C73-23; read-out: MIC
Pseudomonas 1007 = assay: paper disk method, inhibitory zone diameter; type: cell-based; conditions: Pseudomonas, 1007; 2000 γ/ml; read-out: inhibitory zone diameter
[2] = test system: Vibrio parahaemolyticus K-5; assay: antibacterial activity (Minimum Inhibitory Concentration); type: cell-based; conditions: K5; Vibrio parahaemolyticus K-5; read-out: MIC
[3] = test system: Salmonella species C73-30; assay: as above; type: cell-based; conditions: C7330
[4] = test system: Staphylococcus aureus C73-21; assay: as above; type: cell-based; conditions: C7321; Staphylococcus aureus C73-21; read-out: MIC
[5] = test system: Vibrio parahaemolyticus K-7; assay: as above; type: cell-based; conditions: K7; Vibrio parahaemolyticus K-7; read-out: MIC
[6] = test system: Shigella dysenteriae Shigae; assay: microbe, parasite or virus in culture; type: cell-based
Proteus species C73-33 = assay: antibacterial activity (Minimum Inhibitory Concentration); type: cell-based; conditions: Proteus species C73-33; read-out: MIC
[7] = test system: Staphylococcus aureus 209P JC-1; assay: as above; type: cell-based; conditions: Staphylococcus aureus 209P JC-1; read-out: MIC
Proteus morganii Kono = assay: as above; type: cell-based; conditions: Morganella morganii
[8] = test system: Enterococcus species C73-33; assay: as above; type: cell-based; conditions: Enterococcus, C7333
[9] = test system: Bacillus subtilis ATCC 6633; assay: paper disk method, inhibitory zone diameter; type: cell-based; conditions: read-out: inhibitory zone diameter
Proteus species C73-25 = assay: antibacterial activity (Minimum Inhibitory Concentration); type: cell-based; conditions: Proteus species C73-25; read-out: MIC
[10] = test system: Enterococcus species C73-17; assay: as above; type: cell-based; conditions: Enterococcus, C7317
E. coli C73-12 = assay: as above; type: cell-based; conditions: Escherichia coli, C7312
E. coli C73-4 = assay: as above; type: cell-based; conditions: Escherichia coli, C734; E. coli C73-4; read-out: MIC
microorganisms indicated = assay: antimicrobial activities, paper disk method (general statement); type: cell-based; conditions: Tables 1 to 4
Method: The inhibitory activities were determined at various concentrations of the compounds using the paper disk method against the microorganisms indicated and the numerical values show the inhibitory zone diameter in terms of mm.

E. coli C73-1 = assay: antibacterial activity (Minimum Inhibitory Concentration); type: cell-based; conditions: Escherichia coli, C731; E. coli C73-1; read-out: MIC
[11] = test system: Vibrio parahaemolyticus K-3; assay: as above; type: cell-based; conditions: K3; Vibrio parahaemolyticus K-3; read-out: MIC
[12] = test system: Bacillus anthracis No. 119; assay: microbe, parasite or virus in culture; type: cell-based
[13] = test system: Staphylococcus aureus C73-4; assay: antibacterial activity (Minimum Inhibitory Concentration); type: cell-based; conditions: Staphylococcus aureus, C734
Klebsiella 7 = assay: paper disk method, inhibitory zone diameter; type: cell-based; conditions: Klebsiella, 7; 2000 γ/ml; read-out: inhibitory zone diameter
Klebsiella 6 = assay: paper disk method, inhibitory zone diameter; type: cell-based; conditions: Klebsiella, 6; 2000 γ/ml; read-out: inhibitory zone diameter
[14] = test system: Staphylococcus albus PCI-1200A; assay: antibacterial activity (Minimum Inhibitory Concentration); type: cell-based; conditions: PCI1200A; Staphylococcus albus PCI-1200A; read-out: MIC
male ICR mice = assay: acute toxicity; conditions: intravenous administration, 200 mg/kg
Proteus species C73-34 = assay: antibacterial activity (Minimum Inhibitory Concentration); type: cell-based; conditions: Proteus species C73-34; read-out: MIC
[15] = test system: Bacillus subtilis ATCC 6633; assay: as above; type: cell-based; conditions: ATCC6633; Bacillus subtilis ATCC 6633; read-out: MIC
Mycobacterium 607 = assay: paper disk method, inhibitory zone diameter; type: cell-based; conditions: Mycobacterium, 607, read-out: inhibitory zone diameter
[16] = test system: Staphylococcus aureus C73-10; assay: antibacterial activity (Minimum Inhibitory Concentration); type: cell-based; conditions: Staphylococcus aureus, C7310
[17] = test system: E. coli HL-1629 (Kanamycin-resistant strain); assay: microbe, parasite or virus in culture; type: cell-based; conditions: Escherichia coli, read-out: inhibitory zone diameter
[18] = test system: Staphylococcus aureus Smith S-424; assay: antibacterial activity (Minimum Inhibitory Concentration); type: cell-based; conditions: SMITHS424; Staphylococcus aureus Smith S-424; read-out: MIC
Klebsiella pneumoniae = assay: as above; type: cell-based
[19] = test system: Staphylococcus aureus 6538P; assay: paper disk method, inhibitory zone diameter; type: cell-based; conditions: read-out: inhibitory zone diameter

## NC[C@H]1O[C@H](O[C@H]2C[C@@H](O)[C@H](N)C[C@@H]2N)[C@H](N)[C@@H](O)[C@@H]1O [5-Deoxyneamine, 5-deoxyneamine]
[1]
  MIC: 1.56 µg/mL (≈ 5.09 µM)
Proteus species C73-23
  MIC: 12.5 µg/mL (≈ 40.8 µM)
Pseudomonas 1007
  zone of inhibition at 2000 µg/mL: 0 mm
[2]
  MIC: 12.5 µg/mL (≈ 40.8 µM)
[3]
  MIC: 12.5 µg/mL (≈ 40.8 µM)
[4]
  MIC: 0.2 µg/mL (≈ 0.653 µM)
[5]
  MIC: 12.5 µg/mL (≈ 40.8 µM)
[6]
  MIC: 6.25 µg/mL (≈ 20.4 µM)
Proteus species C73-33
  MIC: 50 µg/mL (≈ 163 µM)
[7]
  MIC: 0.39 µg/mL (≈ 1.27 µM)
Proteus morganii Kono
  MIC: 6.25 µg/mL (≈ 20.4 µM)
[8]
  MIC: 6.25 µg/mL (≈ 20.4 µM)
[9]; ATCC6633, 7.8 γ/ml
  zone of inhibition at 7.8 µg/mL: 11.2 mm
[9]; ATCC6633, 15.6 γ/ml
  zone of inhibition at 15.6 µg/mL: 13.8 mm
[9]; ATCC6633, 31.2 γ/ml
  zone of inhibition at 31.2 µg/mL: 15.7 mm
[9]; ATCC6633, 62.5 γ/ml
  zone of inhibition at 62.5 µg/mL: 20.5 mm
[9]; ATCC6633, 125 γ/ml
  zone of inhibition at 125 µg/mL: 23.2 mm
[9]; ATCC6633, 250 γ/ml
  zone of inhibition at 250 µg/mL: 25.6 mm
[9]; ATCC6633, 500 γ/ml
  zone of inhibition at 500 µg/mL: 28.3 mm
[9]; ATCC6633, 1000 γ/ml
  zone of inhibition at 1000 µg/mL: 30.8 mm
[9]; ATCC6633, 2000 γ/ml
  zone of inhibition at 2000 µg/mL: 33.4 mm
Proteus species C73-25
  MIC: 3.13 µg/mL (≈ 10.2 µM)
[10]
  MIC: 6.25 µg/mL (≈ 20.4 µM)
E. coli C73-12
  MIC: 6.25 µg/mL (≈ 20.4 µM)
E. coli C73-4
  MIC: 12.5 µg/mL (≈ 40.8 µM)
Microorganisms indicated
  antimicrobial activities relative to neamine: superior to those of the parent compound neamine
E. coli C73-1
  MIC: 12.5 µg/mL (≈ 40.8 µM)
[11]
  MIC: 0.39 µg/mL (≈ 1.27 µM)
[12]
  MIC: 1.56 µg/mL (≈ 5.09 µM)
[13]
  MIC: 1.56 µg/mL (≈ 5.09 µM)
Klebsiella 7
  zone of inhibition at 2000 µg/mL: 0 mm
Klebsiella 6
  zone of inhibition at 2000 µg/mL: 0 mm
[14]
  MIC: 0.2 µg/mL (≈ 0.653 µM)
Male ICR mice
  acute toxicity, survival: all male ICR mice were survived
Proteus species C73-34
  MIC: 12.5 µg/mL (≈ 40.8 µM)
[15]
  MIC: 0.39 µg/mL (≈ 1.27 µM)
Mycobacterium 607; 62.5 γ/ml
  zone of inhibition at 62.5 µg/mL: 0 mm
Mycobacterium 607; 125 γ/ml
  zone of inhibition at 125 µg/mL: 0 mm
Mycobacterium 607; 250 γ/ml
  zone of inhibition at 250 µg/mL: 10.4 mm
Mycobacterium 607; 500 γ/ml
  zone of inhibition at 500 µg/mL: 16.4 mm
Mycobacterium 607; 1000 γ/ml
  zone of inhibition at 1000 µg/mL: 22 mm
Mycobacterium 607; 2000 γ/ml
  zone of inhibition at 2000 µg/mL: 26.8 mm
[16]
  MIC: 1.56 µg/mL (≈ 5.09 µM)
[17]
  zone of inhibition at 1000 µg/mL: 0 mm
  zone of inhibition at 2000 µg/mL: 13.9 mm
[18]
  MIC: 0.78 µg/mL (≈ 2.55 µM)
Klebsiella pneumoniae
  MIC: 6.25 µg/mL (≈ 20.4 µM)
[19]; 7.8 γ/ml
  zone of inhibition at 7.8 µg/mL: 0 mm
[19]; 15.6 γ/ml
  zone of inhibition at 15.6 µg/mL: 0 mm
[19]; 31.2 γ/ml
  zone of inhibition at 31.2 µg/mL: 0 mm
[19]; 62.5 γ/ml
  zone of inhibition at 62.5 µg/mL: 10.3 mm
[19]; 125 γ/ml
  zone of inhibition at 125 µg/mL: 12.4 mm
[19]; 250 γ/ml
  zone of inhibition at 250 µg/mL: 15.3 mm
[19]; 500 γ/ml
  zone of inhibition at 500 µg/mL: 18.5 mm
[19]; 1000 γ/ml
  zone of inhibition at 1000 µg/mL: 20.4 mm
[19]; 2000 γ/ml
  zone of inhibition at 2000 µg/mL: 22.5 mm
